The target in assay [1] is NL20 human bronchial epithelial cells expressing human Z-AAT (Homo sapiens (Human), UniProt P01009, E366K). Kind of assay: AAT Function Assay (MSD Assay NL20-SI Cell Line). The format is cell-based. Particulars: functionally active AAT (AAT-hNE complex, MSD) in supernatant of NL20 cells expressing human Z-AAT; read-out: NL20 Functional EC50. As for the experimental part:
A. AAT Function Assay (MSD Assay NL20-SI Cell Line)
Alpha-1 antitrypsin (AAT) is a SERpIN (serine protease inhibitor) that inactivates enzymes by binding to them covalently. This assay measured the amount of functionally active AAT in a sample in the presence of the disclosed Compounds 1-227 by determining the ability of AAT to form an irreversible complex with human neutrophil Elastase (hNE). In practice, the sample (cell supernatant, blood sample, or other) was incubated with excess hNE to allow AAT-Elastase complex to be formed with all functional AAT in the sample. This complex was then captured to a microplate coated with an anti-AAT antibody. The complex captured to the plate was detected with a labeled anti-Elastase antibody and quantitated using a set of AAT standards spanning the concentration range present in the sample. Meso Scale Discovery (MSD) plate reader, Sulfo-tag labeling, and microplates were used to provide high sensitivity and wide dynamic range.
Instrument(S): • Meso Sector S600 • Bravo • Washer dispenser • Multidrop Combi
Day 1 Cell Culture • 1. Harvest NL20 human bronchial epithelial cells expressing human Z-AAT in OptiMEM™ containing Pen/Strep (P/S) • 2. Seed at 16,000 cells/well in 30 μL (384 well plate) • 3. Centrifuge plates briefly up to speed (1200 rpm) and place into 37° C. incubator overnight
Day 2: Compound Addition and Coating Plates with Capture Antibody
Compound Addition: • 1. Dispense 40 μL of OptiMEM™ (P/S) with doxycycline (1:1000 stock=0.1 μM final) to each well of the compound plate using a multidrop Combi in hood • 2. Remove cell plate from incubator, flip/blot and take immediately to Bravo to transfer compounds • 3. Return plates to incubator overnight
Coat MSD Plates • 1. Dilute capture antibody (Polyclonal Goat anti-AAT) to 5 μg/mL (1:200) in PBS (no BSA). • 2. Dispense 25 μL of diluted capture antibody into all wells of MSD 384-well High Bind plate using the Multidrop equipped with a standard cassette. • 3. Incubate overnight at 4° C.
Prepare Blocker A (BSA) Solutions • 1. Prepare solution of 5% MSD Blocker A (BSA) following the manufacturer's instructions. • 2. Further dilute the 5% MSD Blocker A in PBS to 1% (Blocker A) as needed.
Block Plates • 1. Wash plate 1× with 50 μL Wash buffer (PBS+0.5% Tween 20), and adds 35 μL 5% Block A buffer to block non-specific binding on washer dispenser • 2. Rotate plates on shaker for 1 hour at 600 rpm
Prepare M-AA T Standards • 1. Dilute M-AAT stock to 1.6 μg/mL in 1% BSA Blocker A (Stock in −70° C.); then prepare 12×1:2 serial dilutions in 1% Blocker A • 2. The top starting final concentration on MSD plate is 320 ng/mL. These dilutions correspond to a final concentration of 320, 160, 80, 40, 20, 10, 5, 2.5, 1.25, 0.625, 0.312, 0.156 ng/mL.
Dilution Plate • 1. Add 80 μL of 1% Assay buffer to all wells except columns 1/24 (standards) with Multidrop Combi • 2. Add diluted standards to columns 1 and 24 • 3. Centrifuge dilution plates 1200 rpm briefly
Cell Plate • 1. Aspirate columns which will have the standards from the cell plates in the hood using 16-pin aspirator
Prepare Human Neutrophil Elastase (hNE) • 1. Prepare 1 μg/mL Human Neutrophil Elastase by diluting in 1% Blocker A. • a. Small 100 μg vial—add 1 mL PBS (100 μg/mL) • i. This can then be diluted 1:100 in 1% Assay Buffer for a final 1 μg/mL concentration
MSD—add hNE (20 μL/well) • 1. After the MSD plate has blocked for at least 1 hour, wash plate 1× with 50 μL Wash buffer (PBS+0.5% Tween 20) and then add 20 μL hNE to each well
Bravo—Cell Plate—Dilution Plate—MSD Plate
Using the Bravo aspirate 10 μL from the cell plate, transfer to the dilution plate (9-fold dilution) • 1. Mix 25 μL 3×, then aspirate 5 μL, transfer to MSD plate (5-fold dilution) • 2. Mix 10 μL 3×. Total dilution is 45 fold. • 3. Shake plates at 600 rpm for 1.5 hours
Add Functional Detection hNE Antibody • 1. Wash plate 1× with wash buffer • 2. […]

In assay [2] the target is purified Z-AAT protein from human plasma (Homo sapiens (Human), UniProt P01009, E366K). Kind of assay: Biochemical Assay (Z-AAT Elastase Activity Assay). Particulars: purified Z-AAT pre-incubated with compound 1 hour, then human neutrophil elastase and fluorescent substrate. An excerpt: B. Biochemical Assay (Z-AAT Elastase Activity Assay)
This assay measured the modulation of Compounds 1-227 on Z-AAT SERpIN activity using purified Z-AAT protein and purified human neutrophil elastase (hNE). Normally, when active monomeric Z-AAT encounters a protease such as trypsin or elastase, it forms a 1:1 covalent “suicide” complex in which both the AAT and protease are irreversibly inactivated. However, compounds binding to Z-AAT can lead to a decrease in SERpIN activity. In such cases, when a protease encounters compound-bound Z-AAT, the protease cleaves and inactivates Z-AAT without itself being inactivated.
Reagents • PBS buffer (media prep)+0.01% BRIJ35 detergent (Calbiochem catalog #203728) Opti-MEM media (Fisher 11058-021) • Human neutrophil elastase (hNE, Athens Research #16-14-051200) • 3.4 μM stock (0.1 mg/mL) prepared in 50 mM Na Acetate, pH 5.5, 150 mM NaCl, stored at −80° C. • Elastase substrate V (ES V, fluorescent peptide substrate MeOSuc-Ala-Ala-Pro-Val-AMC, Calbiochem catalog #324740) • 20 mM stock in DMSO, stored at −20° C. • Purified Z-AAT protein from human plasma; • 12.9 μM (0.67 mg/mL) Z-AAT Vertex Cambridge Sample 4942, from patient • #061-SSN, stored at −80 C
Plates • Corning 4511 (384 well black low volume)
Instruments • PerkinElmer® EnVision™
Pre-Incubation of Z-AAT with Compounds • 1. 7.5 μL of Z-AAT (20 nM) was incubated with compounds 1-227 in a GCA plate for 1 hour at room temperature
Addition of hNE • 1. 7.5 ul of HNE solution (3 nM in PBS+0.01% BRIJ35) added into GCA plate • 2. Incubate plate for 30 minutes to allow Z-AAT/HNE suicide complex formation.
Addition of Substrate and Read Plate on PE Envision • 1. 7.5 μL of substrate (300 μM solution of elastase substrate (ES V) in PBS+0.01% BRIJ35) dispensed per well into GCA plate • 2. Immediately read on Envision.

NL20 human bronchial epithelial cells expressing human Z-AAT, sequence (P01009 25-418 E366K limits assumed): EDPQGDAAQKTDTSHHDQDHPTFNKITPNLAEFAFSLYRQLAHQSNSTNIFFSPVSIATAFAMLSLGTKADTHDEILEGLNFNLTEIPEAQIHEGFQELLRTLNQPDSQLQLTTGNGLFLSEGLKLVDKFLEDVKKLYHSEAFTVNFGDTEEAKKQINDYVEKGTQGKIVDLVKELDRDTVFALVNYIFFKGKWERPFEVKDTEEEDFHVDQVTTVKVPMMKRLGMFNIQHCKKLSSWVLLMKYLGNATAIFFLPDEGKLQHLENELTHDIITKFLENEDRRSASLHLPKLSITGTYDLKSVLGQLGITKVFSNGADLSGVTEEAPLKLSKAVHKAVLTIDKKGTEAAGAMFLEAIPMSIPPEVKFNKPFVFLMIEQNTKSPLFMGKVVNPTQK
purified Z-AAT protein from human plasma, sequence (P01009 25-418 E366K limits assumed): as above

As to `Cc1cc(-n2c(C(C)C)c([C@@H]3COCC3C(=O)O)c3cc(O)ccc32)ccc1F` (mixture of isomers) [Compound 82], the EC50 in assay [1] was greater than 2 µM. For the same molecule, the IC50 in assay [2] is greater than 30 µM.
On the same counts, the results for `Cc1cc(-n2c(C(C)C)c([C@H]3CC[C@@H](C(=O)O)C3)c3cc(O)ccc32)ccc1F` (racemic) [Compound 74] are greater than 2 µM and greater than 30 µM.
On the same counts, the results for `Cc1cc(-n2c(C(C)C)c([C@H]3CC[C@H](C(=O)O)C3)c3cc(O)ccc32)ccc1F` (racemic) [Compound 79] are 0.5 to 2 µM and greater than 5 µM.
On the same counts, the results for `Cc1cc(-n2c(C(C)C)c([C@@H]3COC[C@@H]3C(=O)O)c3cc(O)ccc32)ccc1F` (racemic) [Compound 83] are greater than 2 µM and greater than 30 µM.
Turning to `Cc1cc(-n2c(C3CCOCC3)c([C@H]3CCC[C@@H](CC(=O)O)C3)c3cc(O)ccc32)ccc1F` (racemic) [Compound 105, cis-2-(3-(1-(4-fluoro-3-methylphenyl)-5-hydroxy-2-(tetrahydro-2H-pyran-4-yl)-1H-indol-3-yl)cyclohexyl)acetic acid], in assay [1], the concentration giving a half-maximal response (EC50) lay within 0.5 to 2 µM. For the same molecule, the IC50 in assay [2] is greater than 30 µM.
In the case of `CCC(O)c1c(C#N)c2cc(O)ccc2n1-c1ccc(F)cc1` (racemic) [Compound 189, 1-(4-fluorophenyl)-5-hydroxy-2-(1-hydroxypropyl)indole-3-carbonitrile], the EC50 in assay [1] was greater than 2 µM. Moreover, in assay [2], the IC50 was greater than 30 µM.
With `CCC(OC)c1c(C#N)c2cc(O)ccc2n1-c1ccc(F)cc1` (racemic) [Compound 190, 1-(4-fluorophenyl)-5-hydroxy-2-(1-methoxypropyl)indole-3-carbonitrile], the EC50 in assay [1] was 0.5 to 2 µM. Also, the IC50 in assay [2] is greater than 5 µM.
On the same counts, the results for `Cc1cc(-n2c(C3CCOCC3)c([C@H]3C[C@@H]3C(=O)O)c3cc(O)ccc32)ccc1F` (relative stereo) [Compound 124, trans-2-[1-(4-fluoro-3-methyl-phenyl)-5-hydroxy-2-tetrahydropyran-4-yl-indol-3-yl]cyclopropanecarboxylic acid] are greater than 2 µM and greater than 30 µM.
For the molecule `O=C(O)[C@H]1CCC[C@@H](c2c(C3CCOCC3)n(-c3ccc(F)c(F)c3)c3ccc(O)cc23)C1` (relative stereo) [Compound 136, cis-3-(1-(3,4-difluorophenyl)-5-hydroxy-2-(tetrahydro-2H-pyran-4-yl)-1H-indol-3-yl)cyclohexane-1-carboxylic acid], the EC50 in assay [1] is 0.5 to 2 µM. Moreover, the IC50 in assay [2] is greater than 30 µM.
On the same counts, the results for `Cc1cc(-n2c(C(C)C)c(CC(C)C(=O)O)c3cc(O)ccc32)ccc1F` (single isomer, unassigned) [Compound 101] are greater than 2 µM and greater than 30 µM.
On the same counts, the results for `Cc1cc(-n2c(C(C)C)c(CC(C)C(=O)O)c3cc(O)ccc32)ccc1F` (single isomer, unassigned) [Compound 102] are greater than 2 µM and greater than 30 µM.
On to `Cc1cc(-n2c(C(C)C)c(C3CC(F)(C(=O)O)C3)c3cc(O)ccc32)ccc1F` (single isomer, unassigned) [Compound 150], for which the EC50 in assay [1] was in the range of 0.5 to 2 µM. The IC50 in assay [2] was greater than 5 µM.
Consider `Cc1cc(-n2c(C3CCOCC3)c([C@H]3CC[C@H](C(=O)O)CC3)c3cc(O)ccc32)ccc1F` [Compound 1, trans-4-(1-(4-fluoro-3-methylphenyl)-5-hydroxy-2-(tetrahydro-2H-pyran-4-yl)-1H-indol-3-yl)cyclohexane-1-carboxylic acid], for which the IC50 in assay [2] is greater than 30 µM.
Take `Cc1cc(-n2c(C3CCOCC3)c(C3CCCC(C(=O)O)C3)c3cc(O)ccc32)ccc1F` (stereo not shown) [Compound 3]: in assay [1], the EC50 fell in the range of 0.5 to 2 µM. In assay [2], the IC50 is greater than 30 µM.
For `Cc1cc(-n2c(C3CCOCC3)c(CC34CC(C(=O)O)(C3)C4)c3cc(O)ccc32)ccc1F` [Compound 4], in assay [1], the EC50 is greater than 2 µM. Further, the half-maximal inhibitory concentration (IC50) in assay [2] was greater than 30 µM.
In the case of `Cc1cc(-n2c(C(C)C)c([C@H]3C[C@@H]3C(=O)O)c3cc(O)c(F)cc32)ccc1F` [Compound 129], in assay [1], the EC50 is 0.5 to 2 µM.
With `Cc1cc(-n2c(C(C)C)c(C3CC3(C)C(=O)O)c3cc(O)ccc32)ccc1F` (stereo not shown) [Compound 130], in assay [1], the EC50 is 0.5 to 2 µM.
Take `Cc1cc(-n2c(C(C)C)c(-c3ccc(C(=O)O)cc3)c3cc(O)ccc32)ccc1F` [Compound 167]: the EC50 in assay [1] was less than 0.5 µM.
As to `Cc1cc(-n2c(C(C)C)c(-c3ccc(C(=O)O)cc3C)c3cc(O)ccc32)ccc1F` [Compound 170], the EC50 in assay [1] is 0.5 to 2 µM.
`Cc1c(C#N)c2cc(O)ccc2n1-c1ccc(F)cc1` [Compound 182, 1-(4-fluorophenyl)-5-hydroxy-2-methyl-1H-indole-3-carbonitrile]: the EC50 in assay [1] is greater than 2 µM.
On the same count and under the same terms, as for `Cc1c(C(C)C#N)c2cc(O)ccc2n1-c1ccc(F)cc1` (stereo not shown) [Compound 183, 2-(1-(4-fluorophenyl)-5-hydroxy-2-methyl-1H-indol-3-yl)propanenitrile], the figure is greater than 2 µM; as for `Cc1cc(-n2c(C(C)C)c([C@H]3C[C@H](c4n[nH]c(=O)o4)C3)c3cc(O)ccc32)ccc1F` [Compound 221, Trans-5-[3-[1-(4-fluoro-3-methyl-phenyl)-5-hydroxy-2-isopropyl-indol-3-yl]cyclobutyl]-3H-1,3,4-oxadiazol-2-one], greater than 2 µM; as for `Cc1cc(-n2c(C(C)C)c([C@H]3C[C@@H](c4n[nH]c(=O)o4)C3)c3cc(O)ccc32)ccc1F` [Compound 222, cis-5-[3-[1-(4-fluoro-3-methyl-phenyl)-5-hydroxy-2-isopropyl-indol-3-yl]cyclobutyl]-3H-1,3,4-oxadiazol-2-one], greater than 2 µM.

Usually EC50 stands for the midpoint of the concentration-response curve. What is called IC50 is the concentration that gives 50% inhibition.

The values above are taken from patent US20230339915A1 (Vertex Pharmaceuticals Incorporated, priority 2020, published 2023).
